# Results taken from patent US20030114403A1, “Method for treatment of cancers and antineoplastic pharmaceutical formulations” (CANADA Inc., priority 2001, published 2003).
# Key:
# Ehrlich ascites cells = experiment: Transmission electron microscopy of Ehrlich ascites cells from intraperitoneal liquid after treatment; format: cell-based, A2G mice
# Ehrlich ascites = Ehrlich ascites in A2G mice, single intraperitoneal treatment; conditions: for toxic side effects: animals followed up to one month
# Method: Normal A2G mice were transplanted 24 hours prior to treatment with 1,000,000 Ehrlich ascites cells. Treatment procedures consisted of a single intraperitoneal injection of malachite green 4/mg/kg or brilliant green 2 mg/kg, with or without 0.7% levorotatory lactic acid.
# A lot of 50 A2G mice with a bodyweight of approximately 25 g each were infected with Ehrlich ascites 48 hours prior to treatment. Treatment consisted of one intraperitoneal injection of 1.0 cm^3 brilliant green 1:20,000 solution (2 mg per kilogram) or 1.0 cm^3 of malachite green 1:10,000 (4 mg per kilogram), with 0.7% levorotatory lactic acid.
# [1] = single intraperitoneal injection, malachite green 4/mg/kg or brilliant green 2 mg/kg, with or without 0.7% levorotatory lactic acid
SMILES,"inactivation of malignant cells (electron microscope study of intraperitoneal liquid samples) (Ehrlich ascites cells; one i.p. injection of brilliant green 1:20,000 (2 mg per kilogram) or malachite green 1:10,000 (4 mg per kilogram) with 0.7% levorotatory lactic acid, samples at different times)",lipid droplet synthesis (TEM) (Ehrlich ascites cells; twenty-four hours after the treatment),morphology (TEM) of ascites cells in peritoneal fluid (Ehrlich ascites cells; two weeks post treatment),resolution of Ehrlich ascites (Ehrlich ascites; [1]),toxic side effects (Ehrlich ascites; [1]),"effect of blocking malignancies (Ehrlich ascites; with lactic acid as specific vector and metabolite, in vitro and in vivo)"
CN(C)c1ccc(C(=C2C=CC(=[N+](C)C)C=C2)c2ccccc2)cc1 [malachite green],complete inactivation of the malignant cells,slowed down,characteristic cytostatic morphology consistent with interruption of cell cycling,ability to resolve Ehrlich ascites,no obvious toxic side effects were observed,irreversible effect of blocking malignancies both in vitro and in vivo
CCN(CC)c1ccc(C(=C2C=CC(=[N+](CC)CC)C=C2)c2ccccc2)cc1 [brilliant green],–,–,–,–,no obvious toxic side effects were observed,–
